Test results reported in patent US20240327401A1, “FUSED RING COMPOUND, PHARMACEUTICAL COMPOSITION, AND APPLICATION THEREOF” (EVOPOINT BIOSCIENCES CO., LTD., priority 2021, published 2024).

What was measured:
[1] = test system: ERK phosphorylation in DLD-1 cells; test: In-cell Western blot assay for ERK phosphorylation in DLD-1 cells; assay type: cell-based; conditions: Homo sapiens, p-ERK signal corrected using DMSO and BI-3406, four-parameter fit
Method: Efficacy Example 1: In-cell Western Blot Assay for ERK Phosphorylation in DLD-1 Cells
DLD-1 cells (ATCC, CCL-221) were thawed and cultured in a culture medium containing RPMI1640 (Gibco, A10491-01), 10% fetal bovine serum (FBS) (Transgene, FS201-02) and 1% antibiotic P/S (Gibco, 15140-122) for 3 days until the cell viability was good. The cells were inoculated into a 384-well plate and incubated at 37° C. with 5% CO2 overnight. A test compound, a positive control compound, and a negative control were added. The compound was at concentrations of 10000 nM to 1.52 nM (3-fold dilution) and […], for a total of 10 concentrations. The mixture was well mixed and incubated at 37° C. with 5% CO2. The cells were washed twice with PBS (Solarbio, P1010), and then a blocking buffer was added. After 1 h of blocking at room temperature, a primary antibody mixture (phospho-p44/42 MAPK (T202/Y204) Rabbit mAb (CST, […]), GAPDH (D4C6R) Mouse mAb) (CST, 97166S) was added, followed by overnight incubation at 4° C. The cells were washed 3 times with PBST (PBS containing 0.05% Tween-20 (Solarbio, T8220)), and a secondary antibody mixture (goat anti rabbit 800CW (LI-COR, 926-32211), goat anti mouse 680RD (LI-COR, 926-68070)) was added, followed by incubation at room temperature in the dark. The 384-well plate was reversed and centrifuged at 1000 rpm for 1 min, and read on an Odyssey CLx fluorescence imaging system (LI-COR) to obtain fluorescence signal values, which were corrected using DMSO and BI-3406.
[formula] • H=Ave (DMSO) • L=Ave (BI-3406) • SD (H)=STDEV (DMSO) • SD (L)=STDEV (BI-3406)
The IC50 values of the compounds were calculated using a four-parameter fitting algorithm, specifically as follows:
[formula] • X: Log of cpd concentration • Y: Ave (relative pERK) • Top and Bottom: Plateaus in same units as Y • log IC50: same log units as X • HillSlope: Slope factor or Hill slope.

[2] = target: T1, SOS1/KRAS G12C protein binding (Homo sapiens, UniProt Q07889); test: Inhibition of SOS1/KRAS G12C protein binding (665 nm/615 nm ratio); conditions: 15 nM KRAS G12C (aa 1-169), 2.5 nM His-SOS1 (aa 564-1049); nonlinear regression
T1 construct: His-SOS1 (aa 564-1049) protein; purchased Pharmaron Beijing Co., Ltd. 20200717 (His-SOS1); 20200707 (KRAS G12C)
T1 sequence (Q07889 564-1049): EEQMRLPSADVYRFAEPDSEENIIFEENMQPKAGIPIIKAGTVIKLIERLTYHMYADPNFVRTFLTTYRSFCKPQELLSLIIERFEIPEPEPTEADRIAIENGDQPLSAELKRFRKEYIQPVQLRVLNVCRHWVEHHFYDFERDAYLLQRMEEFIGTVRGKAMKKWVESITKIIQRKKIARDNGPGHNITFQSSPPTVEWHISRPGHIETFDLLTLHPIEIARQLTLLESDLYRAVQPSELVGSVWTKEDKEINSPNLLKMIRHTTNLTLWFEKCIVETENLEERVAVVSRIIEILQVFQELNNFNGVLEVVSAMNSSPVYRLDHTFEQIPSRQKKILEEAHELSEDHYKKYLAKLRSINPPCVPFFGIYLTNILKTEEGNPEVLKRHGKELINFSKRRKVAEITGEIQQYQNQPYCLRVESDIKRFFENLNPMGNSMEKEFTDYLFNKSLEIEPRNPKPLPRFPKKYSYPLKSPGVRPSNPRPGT
Method: Efficacy Example 2: Evaluation of Inhibition of SOS1/KRAS G12C Protein Binding
A test compound was dissolved in 100% DMSO to give a solution at a concentration of 10 mM. 10 μL of the solution was taken and 3-fold diluted with 100% DMSO to prepare test compound solutions with concentrations of 10000 nM to […], for a total of 11 concentrations. The compound solutions at different concentrations were then transferred to a 384-well plate at 0.1 μL/well using a sonic droplet device Echo (Labcyte), and 2 replicate wells were set for each concentration.
A 15 nM KRAS G12C (aa 1-169) protein (Pharmaron Beijing Co., Ltd., 20200707) was transferred to the 384-well reaction plate at 5 μL/well using the sonic droplet device Echo (Labcyte), and then the reaction plate was centrifuged in a centrifuge (Eppendorf, 5810R) at 1000 rpm/min for 1 min.
A 2.5 nM His-SOS1 (aa 564-1049) protein (Pharmaron Beijing Co., Ltd., 20200717) was transferred to the 384-well reaction plate at 5 μL/well using the sonic droplet device Echo (Labcyte), and then the reaction plate was centrifuged in a centrifuge (Eppendorf, 5810R) at 1000 rpm/min for 1 min and incubated at 25° C. for 15 min.
A mixed solution of Antibody 1 (MAb Anti-6his-Tb cryptate Gold, Cisbio, 61HI2TLA) and Antibody 2 (MAb Anti-GST-XL665, Cisbio, 61GSTXLA) was transferred to the 384-well reaction plate at 10 μL/well using the sonic droplet device Echo (Labcyte), and then the reaction plate was centrifuged in a centrifuge (Eppendorf, 5810R) at 1000 rpm/min for 1 min and incubated at 25° C. for 120 min.
The 665 nm/615 nm optical density ratio was read using an Envision multifunctional microplate reader (Perkin Elmer, Envision 2104).
Analysis of Original Data:
The IC50 values of the compounds were fitted by a nonlinear regression equation of Graphpad Prism 8. The results are shown in Table 2: • Negative control: DMSO
The IC50 (half maximal inhibitory concentration) values of the compounds were calculated using the following non-linear fitting equation:
[formula] • X: Log of cpd concentration • Y: 665 nm/615 nm ratio

Row | Structure (SMILES) | IC50 [1] [nM] | IC50 [2] [nM]
1 | COc1c(=O)n(C2(C(F)F)CC2)cc2c(N[C@H](C)c3cccc(C(F)(F)F)c3F)nc(C)nc12 [SZ-022349] | 193 | 7.23
2 | COc1c(=O)n(C2(C(F)F)CC2)cc2c(N[C@H](C)c3cccc(C(C)(F)F)c3)nc(C)nc12 [SZ-022350] | 211 | 16.7
3 | Cc1nc(N[C@H](C)c2cccc(C(F)F)c2F)c2cn(C3(C(F)F)CC3)c(=O)c(O[C@H]3CCOC3)c2n1 [SZ-022351] | 555 | 21.4
4 | Cc1nc(N[C@H](C)c2cccc(C(F)F)c2F)c2cn(C3(C(F)F)CC3)c(=O)c(OCCO)c2n1 [SZ-022352] | 516 | 16
5 | Cc1nc(N[C@H](C)c2cccc(C(F)F)c2F)c2cn(C3(C(F)F)CC3)c(=O)c(O[C@@H]3CCOC3)c2n1 [SZ-022353] | 377 | 17.5
6 | [2H]C([2H])([2H])Oc1c(=O)n(C2(C(F)(F)F)CC2)cc2c(N[C@H](C)c3cccc(C(F)F)c3F)nc(C)nc12 [SZ-022354] | 138 | 21.8
7 | [2H]C([2H])([2H])Oc1c(=O)n(C2(C(F)F)CC2)cc2c(N[C@H](C)c3cccc(C(C)(F)F)c3F)nc(C)nc12 [SZ-022355] | 112 | 2.47
8 | COc1c(=O)n(C2(C)CC2)cc2c(N[C@H](C)c3cccc(C(C)(F)F)c3F)nc(C)nc12 [SZ-022356] | 218 | 4.36
9 | COc1c(=O)n(C2(CF)CC2)cc2c(N[C@H](C)c3cccc(C(C)(F)F)c3F)nc(C)nc12 [SZ-022357] | 165 | 3.68
10 | COc1c(=O)n(C2(C(F)(F)F)CC2)cc2c(N[C@H](C)c3cccc(C(C)(F)F)c3F)nc(C)nc12 [SZ-022358] | 222 | 4.79
11 | CCOc1c(=O)n(C2(C)CC2)cc2c(N[C@H](C)c3cccc(C(C)(F)F)c3F)nc(C)nc12 [SZ-022359] | 231 | 8.57
12 | CCOc1c(=O)n(C2(C(F)(F)F)CC2)cc2c(N[C@H](C)c3cccc(C(C)(F)F)c3F)nc(C)nc12 [SZ-022360] | 221 | 9.46
13 | CCOc1c(=O)n(C2(CF)CC2)cc2c(N[C@H](C)c3cccc(C(C)(F)F)c3F)nc(C)nc12 [SZ-022361] | 164 | 4.62
14 | CCOc1c(=O)n(C2(C(F)(F)F)CC2)cc2c(N[C@H](C)c3cccc(C(F)F)c3F)nc(C)nc12 [SZ-022362] | 77 | 12.4
15 | CCOc1c(=O)n(C2(CF)CC2)cc2c(N[C@H](C)c3cccc(C(F)F)c3F)nc(C)nc12 [SZ-022363] | 171 | 7.36
16 | CCOc1c(=O)n(C2(C)CC2)cc2c(N[C@H](C)c3cccc(C(F)F)c3F)nc(C)nc12 [SZ-022364] | 303 | 22.2
17 | Cc1nc(N[C@H](C)c2cccc(C(F)F)c2F)c2cn(C3(C(F)F)CC3)c(=O)c(OCC(F)F)c2n1 [SZ-022368] | 249 | 23.5
18 | Cc1nc(N[C@H](C)c2cccc(C(F)(F)F)c2C)c2cn(C3(C)CC3)c(=O)c(S(C)(=O)=O)c2n1 [SZ-022371] | 274 | 21.8
19 | COc1c(=O)n(C2(C(F)F)CC2)cc2c(N[C@H](C)c3ccc(-c4ccccc4CN(C)C)s3)nc(C)nc12 [SZ-022373] | 42 | 1.4
20 | COc1c(=O)n(C2(C(F)F)CC2)cc2c(N[C@H](C)c3cccc(C#N)c3C)nc(C)nc12 [SZ-022381] | 741 | 12.3
21 | [2H]C([2H])([2H])Oc1c(=O)n(C2(C(F)F)CC2)cc2c(N[C@H](C)c3cccc(C#N)c3C)nc(C)nc12 [SZ-022382] | 729 | 8.86
22 | COc1c(=O)n(C2(C(F)(F)F)CC2)cc2c(N[C@H](C)c3cccc(C#N)c3C)nc(C)nc12 [SZ-022383] | 985 | 18.4
23 | [2H]C([2H])([2H])Oc1c(=O)n(C2(C(F)(F)F)CC2)cc2c(N[C@H](C)c3cccc(C#N)c3C)nc(C)nc12 [SZ-022384] | 884 | 15.4
